Reference: patent publication US20110104301A1, “METHODS OF REDUCING PAIN AND INFLAMMATION” (Georgetown University, A Congressionally Chartered …, priority 2008, published 2011)

Legend:
dTRPA1-mN chimera = biological target: T1, dTRPA1-mN chimera (UniProt Q7Z020+Q8BLA8); assay: Current-voltage recordings of chimera dTRPA1-mN; format: cell-based; details: mouse N-terminus substituted
T1 construct: mouse TRPA1 N-terminus (720 amino acids); expressed in transfected cells
Protocol: (§1) A genetic approach was used to identify critical sites in TRPA1 and TRPV1 required for activation by general anesthetics. Drosophila TRPA1 is insensitive to desflurane (at concentrations up to 3 mM). […] Note that dTRPA1 is insensitive to AITC. Next, several chimeric TRP proteins containing dTRPA1 (unresponsive to desflurane) and mTRPA1 were tested. For the dTRPA1-mN chimera, the mouse 720 amino acid N-terminus was exchanged for the drosophila N-terminus. The N-terminal domain contains essential binding sites for AITC, and therefore studying this chimera tests an important role for the N-terminus in anesthetic-sensing. […] The mTRPA1-dTM5 construct was then studied, which is the mouse protein containing the fifth transmembrane domain of the drosophila protein.

[1] = test system: AITC-sensitive DRG neurons; assay: Voltage- and current-clamp of DRG sensory neurons; format: cell-based, mouse; details: 10 of 11 cells
Protocol: Electrophysiology. HEK 293F cells were transfected with rat TRPV1, TRPA1, and TRPM8 (gift of David Julius, University of California, San Francisco). Dorsal root ganglia were cultured from adult mice (C57B16/J wild type and TRPV1-null, and mixed B6/129 background TRPA1-null) in Neurobasal +2% B-27 medium (Invitrogen), 0.1% L-glutamine and 1% penicillin/streptomycin. Whole-cell and single-channel patch-clamp recordings were performed by using an EPC8 amplifier (HEKA Electronics). For whole-cell and excised patch recordings the bath solution contained 140 mMNaCl, 4 mMKCl, 1 mMMgCl2, 1.2 mMCaCl2, 10 mMHepes, 10 mM glucose, pH 7.3. For cell-attached experiments, NaCl was replaced with KCl in the bath solution. The pipette solution contained 140 mM NaCl or KCl, 10 mM Hepes, 5 mM EGTA, pH 7.3. For neuronal recording NaCl was replaced with K-gluconate (plus 1 mMATP, 0.2 mM GTP). Solutions were applied via a gravity-fed system. Separate outlets were used to apply capsaicin and AITC solutions to avoid contamination. Voltage-dependent properties were measured as described in Matt and Ahern, J. Physiol. 585:469-482 (2007). Current-voltage measurements comprised a 200-ms ramp from −150 mV to +200 mV. The baseline currents under control conditions were subtracted. For cell-attached experiments, peak amplitudes were measured from all-points histograms, and open probability was measured as NPo>750 ms. Defolliculated Xenopus laevis oocytes were injected with ≈10 ng of hTRPA1 (gift of Ardem Patapoutian, The Scripps Research Institute, La Jolla, Calif.). Oocytes were placed in a Perspex chamber and continuously superfused (5 ml min^−1) with Ca^2+-free solution containing 100 mM NaCl, 2.5 mM KCl, 5 mM Hepes, 1 mM MgC12 and titrated to pH 7.3 with ˜5 mM NaOH.

Drosophila TRPA1 = biological target: T2, Drosophila TRPA1 (Drosophila melanogaster, UniProt Q7Z020); assay: Current-voltage recordings in dTRPA1-expressing HEK293 cells; format: cell-based; details: desflurane at concentrations up to 3 mM
T2 construct: expressed in transfected cells; host or cells: HEK293
T2 sequence (Q7Z020 1-1197): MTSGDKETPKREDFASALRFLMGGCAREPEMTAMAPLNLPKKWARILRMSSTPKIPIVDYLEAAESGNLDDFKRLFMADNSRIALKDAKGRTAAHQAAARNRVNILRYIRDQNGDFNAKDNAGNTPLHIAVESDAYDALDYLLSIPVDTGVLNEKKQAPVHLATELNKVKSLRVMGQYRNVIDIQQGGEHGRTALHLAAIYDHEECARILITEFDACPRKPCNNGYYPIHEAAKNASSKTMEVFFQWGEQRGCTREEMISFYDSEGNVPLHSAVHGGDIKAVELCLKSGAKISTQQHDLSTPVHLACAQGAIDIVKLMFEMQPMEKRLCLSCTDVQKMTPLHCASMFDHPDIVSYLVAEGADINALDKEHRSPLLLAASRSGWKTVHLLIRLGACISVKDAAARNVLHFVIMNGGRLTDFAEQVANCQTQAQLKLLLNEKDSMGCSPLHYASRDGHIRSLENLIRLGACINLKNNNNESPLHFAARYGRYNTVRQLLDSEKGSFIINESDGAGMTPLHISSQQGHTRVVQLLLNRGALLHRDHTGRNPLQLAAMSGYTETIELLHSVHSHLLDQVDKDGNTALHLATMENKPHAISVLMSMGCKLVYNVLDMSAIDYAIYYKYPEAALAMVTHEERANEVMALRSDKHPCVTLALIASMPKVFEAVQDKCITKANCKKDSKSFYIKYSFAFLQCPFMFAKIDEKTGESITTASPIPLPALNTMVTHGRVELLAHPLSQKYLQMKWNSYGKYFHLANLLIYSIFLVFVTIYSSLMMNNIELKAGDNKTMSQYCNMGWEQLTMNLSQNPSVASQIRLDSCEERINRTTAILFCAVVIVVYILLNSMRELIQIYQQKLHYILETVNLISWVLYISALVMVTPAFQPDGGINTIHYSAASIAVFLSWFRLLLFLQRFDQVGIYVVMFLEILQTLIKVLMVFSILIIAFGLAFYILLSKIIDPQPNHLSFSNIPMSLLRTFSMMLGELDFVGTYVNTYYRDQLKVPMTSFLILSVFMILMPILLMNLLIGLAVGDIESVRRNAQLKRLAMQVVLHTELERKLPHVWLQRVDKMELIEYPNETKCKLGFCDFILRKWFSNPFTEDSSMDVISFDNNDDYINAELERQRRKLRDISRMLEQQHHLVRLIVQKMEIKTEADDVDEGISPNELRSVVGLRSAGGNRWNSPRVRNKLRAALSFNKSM
Protocol: as §1

TRPV1 = TRPV1 (Rattus norvegicus, UniProt O35433); assay: Voltage-clamp of TRPV1-expressing Xenopus oocytes (capsaicin, protons, heat); format: cell-based; details: PDBu 200 nM, 3 minutes
Chain of TRPV1 (O35433 whole entry, the tested form may be a part): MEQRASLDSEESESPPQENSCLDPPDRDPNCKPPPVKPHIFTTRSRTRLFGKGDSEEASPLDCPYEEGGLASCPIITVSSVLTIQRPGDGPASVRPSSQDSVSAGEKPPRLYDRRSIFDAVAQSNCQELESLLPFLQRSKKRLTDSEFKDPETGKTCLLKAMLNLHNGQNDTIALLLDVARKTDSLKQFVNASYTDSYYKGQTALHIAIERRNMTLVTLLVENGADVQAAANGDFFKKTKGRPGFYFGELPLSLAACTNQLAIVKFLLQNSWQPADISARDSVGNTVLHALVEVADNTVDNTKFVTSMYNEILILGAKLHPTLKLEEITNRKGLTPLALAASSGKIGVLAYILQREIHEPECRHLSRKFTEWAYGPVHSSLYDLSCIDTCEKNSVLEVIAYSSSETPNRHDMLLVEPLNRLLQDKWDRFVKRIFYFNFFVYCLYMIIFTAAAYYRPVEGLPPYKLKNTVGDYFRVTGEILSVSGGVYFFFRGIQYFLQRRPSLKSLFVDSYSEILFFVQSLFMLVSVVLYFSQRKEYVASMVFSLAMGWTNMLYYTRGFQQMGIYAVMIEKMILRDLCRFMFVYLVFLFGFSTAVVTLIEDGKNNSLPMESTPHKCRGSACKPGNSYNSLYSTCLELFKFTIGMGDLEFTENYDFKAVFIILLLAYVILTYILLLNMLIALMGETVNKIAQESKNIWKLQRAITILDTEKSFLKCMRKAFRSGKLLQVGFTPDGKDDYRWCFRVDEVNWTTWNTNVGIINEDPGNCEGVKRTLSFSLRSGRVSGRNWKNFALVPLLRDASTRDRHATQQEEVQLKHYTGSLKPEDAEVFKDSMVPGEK
Protocol: Oocyte electrophysiology. […] Oocytes were placed in a Perspex chamber and continuously superfused (5 ml min-1) with Ca2+-free solution containing (in mM): 100 NaCl, 2.5 KCl, 5 HEPES, 1 MgCl2 and titrated to pH 7.3 with ˜5 mM NaOH. For solutions <pH 6.0, HEPES was replaced with either 5 mM MES or 5 mM sodium citrate. Oocytes were routinely voltage-clamped at −60 mV at 22-23° C. For heat activation, bath temperature was raised from ˜22-50° C. over ˜100 s using an in-line solution heater (Warner Instruments). The temperature was continuously monitored with a probe placed within 2 mm of the oocyte. The temperature-activation threshold was defined as a 20% increase in current above baseline.
Volatile general anesthetics. Saturated stock solutions of volatile general anesthetics (VGAs) were prepared in gas-tight bottles by dissolving excess anesthetic agents in bath solutions and stirring vigorously overnight. From these stock solutions fresh dilutions were made up every 40-60 minutes. Concentrations of volatile anesthetics in the bath solutions were verified using a modified head-space gas chromatography method. The gas chromatograph (Carlo Erba, Milan, Italy) was equipped with a flame ionization detector (FID) and mass spectrometer. The carrier gas was hydrogen (60 kPa column head pressure) and the fused silica capillary column, coated with polysiloxane SE-30, was 25 m×0.25 mm. Injector temperature was 250° C., FID temperature was 300° C. and the oven was maintained at 90° C. Standards were prepared from a mixture of halothane, isoflurane, and sevoflurane dissolved in acetonitrile with enflurane as an internal standard.

mutant S502A/S800A TRPV1 = biological target: T3, mutant S502A/S800A TRPV1 (Rattus norvegicus, UniProt O35433, S502A/S800A); assay: Heat activation in oocytes expressing mutant S502A/S800A TRPV1; format: cell-based
T3 construct: expressed in transfected cells; host or cells: Xenopus laevis oocytes (cRNA injection)
T3 sequence (O35433 whole entry S502A/S800A): as the sequence (O35433 whole entry, the tested form may be a part) above, with S502A, S800A counted along it
Protocol: Oocyte electrophysiology. […] Oocytes were placed in a Perspex chamber and continuously superfused (5 ml min-1) with Ca2+-free solution containing (in mM): 100 NaCl, 2.5 KCl, 5 HEPES, 1 MgCl2 and titrated to pH 7.3 with 5 mM NaOH. For solutions <pH 6.0, HEPES was replaced with either 5 mM MES or 5 mM sodium citrate. Oocytes were routinely voltage-clamped at -60 mV at 22-23° C.

T1 sequence (Q8BLA8+Q7Z020 fused, change not shown): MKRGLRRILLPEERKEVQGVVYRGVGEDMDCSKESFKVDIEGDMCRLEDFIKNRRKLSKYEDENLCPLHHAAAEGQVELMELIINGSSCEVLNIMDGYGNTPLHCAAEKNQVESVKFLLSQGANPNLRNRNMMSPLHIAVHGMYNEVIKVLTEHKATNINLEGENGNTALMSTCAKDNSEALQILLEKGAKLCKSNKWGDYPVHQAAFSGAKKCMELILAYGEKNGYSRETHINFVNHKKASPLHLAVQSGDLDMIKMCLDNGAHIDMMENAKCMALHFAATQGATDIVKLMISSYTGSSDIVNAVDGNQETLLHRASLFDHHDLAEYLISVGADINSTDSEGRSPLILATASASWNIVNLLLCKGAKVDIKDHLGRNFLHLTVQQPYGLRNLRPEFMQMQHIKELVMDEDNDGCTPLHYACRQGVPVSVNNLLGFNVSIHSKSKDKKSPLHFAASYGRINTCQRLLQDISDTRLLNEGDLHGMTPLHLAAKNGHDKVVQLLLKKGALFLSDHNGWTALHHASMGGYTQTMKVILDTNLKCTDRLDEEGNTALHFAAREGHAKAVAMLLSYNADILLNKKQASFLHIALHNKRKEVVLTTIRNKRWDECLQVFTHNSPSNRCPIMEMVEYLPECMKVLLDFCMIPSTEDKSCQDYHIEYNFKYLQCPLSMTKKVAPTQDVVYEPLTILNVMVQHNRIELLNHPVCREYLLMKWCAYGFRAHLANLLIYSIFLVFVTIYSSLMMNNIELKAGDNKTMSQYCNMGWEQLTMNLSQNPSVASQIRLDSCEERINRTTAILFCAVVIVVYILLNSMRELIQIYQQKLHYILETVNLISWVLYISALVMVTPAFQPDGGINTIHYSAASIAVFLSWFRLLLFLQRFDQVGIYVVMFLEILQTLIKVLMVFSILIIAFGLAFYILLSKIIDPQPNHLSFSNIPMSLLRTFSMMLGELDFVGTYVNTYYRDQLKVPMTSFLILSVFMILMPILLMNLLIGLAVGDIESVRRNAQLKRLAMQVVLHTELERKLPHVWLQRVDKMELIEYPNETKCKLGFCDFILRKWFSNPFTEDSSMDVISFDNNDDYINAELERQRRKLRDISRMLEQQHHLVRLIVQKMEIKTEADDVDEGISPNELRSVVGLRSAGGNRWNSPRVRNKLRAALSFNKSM

## C=CCN=C=S [AITC]
dTRPA1-mN chimera
  Response of dTRPA1-mN chimera: conferred AITC-sensitivity
[1]
  Isoflurane-responsive neurons also sensitive to AITC: 91%
Drosophila TRPA1
  Sensitivity of Drosophila TRPA1: insensitive

## CCCC(=O)O[C@@H]1[C@@H](C)[C@@]2(O)[C@@H](C=C(CO)C[C@]3(O)C(=O)C(C)=C[C@@H]23)[C@@H]2C(C)(C)[C@]12OC(=O)CCC [PDBu, phorbol 12, 13 dibutyrate]
TRPV1
  Temperature threshold of TRPV1 heat activation, PDBu alone: 39.3±2.3 °C
Mutant S502A/S800A TRPV1
  Effect of PDBu in oocytes expressing mutant TRPV1: did not produce a significant effect
